According to ChEMBL document CHEMBL4354782, “Quinolone antibiotics” (Medchemcomm, 2019):

Assays:
[1] = Toxicity in human assessed as renal failure
[2] = Toxicity in human assessed as thrombocytopenia
[3] = Haemolytic activity in human; type: ADME, organism-based; conditions: in vivo, read-out: Activity

CC1CN(c2cc3c(cc2F)c(=O)c(C(=O)O)cn3-c2ccc(F)cc2F)CCN1 (stereo not drawn) [TEMAFLOXACIN]
0.02%: Activity [1] | Activity [2] | hemolysis [3]
